Results: patent publication US7592367B2, “Compounds from Garcinia hanburyi, their use in treating cancer and method of separating epimers thereof” (priority 2005, dated 2009)
Where two headings read alike, the source gives them in different places.

Columns and labels:
[1] = test system: doxorubicin-resistant K562 (K562/R) cell line
Experimental: (§1) Cytotoxicity Assay: Both epimers were tested for their cytotoxicities against human leukemia K562 (K562/S) and doxorubicin-resistant K562 (K562/R) cell lines, using the SRB method previously described with doxorubicin being the positive control. The OD data were recorded in X±S, and the IC50 values were calculated with sigmoidal plot.

[2] = test system: human leukemia K562 (K562/S) cell line
Experimental: as §1

[3] = test system: doxorubicin-resistant K562 (K562/R) cell line; experiment: MTT cytotoxicity assay, doxorubicin-resistant K562; type: cell-based, human; details: read-out: Cytotoxicity IC50 against K562/R
Experimental: MTT assay was performed using a reported method. […] Absorbance of untreated controls was taken as 100%. […] An aliquot of the supernatant was analyzed by HPLC.

[4] = test system: human cytochrome P-450 enzymes (1A2, 2A6, 2D6, 2E1, 3A4); experiment: CYP inhibition in human liver microsomes, five isoforms other than CYP2C9; type: in vitro ADME; details: probe reactions
[5] = test system: human leukemia K562 (K562/S) cell line; experiment: MTT cytotoxicity assay, doxorubicin-sensitive K562
Experimental: Both doxorubicin-resistant (K562/R) and -sensitive K562 (K562/S) cell sublines, purchased from Tianjin Instute of Hematopathy, the Chinese Academy of Medical Sciences, China, were cultured in PRMI1640 (Gibco, USA) medium and supplemented with 10 fetal bovine serums at 37° C. in a humidified incubator with 5% CO2. MTT assay was performed using a reported method [12]. Cell lines were seeded into 96-well plates at 6000 viable cells per well. The test chemicals (ADR, DMSO, Th1 and Th2) with different concentrations were loaded in a final volume of 200 μL per well. After 44 hours of incubation, MTT (5 g/L) was added to each well in a volume of 10 μl and incubated for 4 hours. Afterwards, the medium was removed and 200 μl of Me2SO (37° C.) was added and shaken for 5 minutes. A 96-well microtiter plate reader was used to determine absorbance values at 570 nm. Mean value of each concentration (n=3 wells) was obtained. Absorbance of untreated controls was taken as 100%. Survival rate was calculated as follows: Cell survival rate (%)=(T−B)/(U−B)×100%, T (treated) is absorbance of chemically treated cells, U (untreated) is the absorbance of untreated cells, and B (blank) is the absorbance when neither cells nor chemicals was added.

CYP2C9 = target: T1, CYP2C9 (Homo sapiens, UniProt P11712); type: in vitro ADME; details: microsomes
T1 construct: HLM were prepared from liver tissue as described in the literature [13]; from tissue; host or cells: human liver microsomes prepared from an autopsy liver sample (person)
T1 sequence (P11712 whole entry): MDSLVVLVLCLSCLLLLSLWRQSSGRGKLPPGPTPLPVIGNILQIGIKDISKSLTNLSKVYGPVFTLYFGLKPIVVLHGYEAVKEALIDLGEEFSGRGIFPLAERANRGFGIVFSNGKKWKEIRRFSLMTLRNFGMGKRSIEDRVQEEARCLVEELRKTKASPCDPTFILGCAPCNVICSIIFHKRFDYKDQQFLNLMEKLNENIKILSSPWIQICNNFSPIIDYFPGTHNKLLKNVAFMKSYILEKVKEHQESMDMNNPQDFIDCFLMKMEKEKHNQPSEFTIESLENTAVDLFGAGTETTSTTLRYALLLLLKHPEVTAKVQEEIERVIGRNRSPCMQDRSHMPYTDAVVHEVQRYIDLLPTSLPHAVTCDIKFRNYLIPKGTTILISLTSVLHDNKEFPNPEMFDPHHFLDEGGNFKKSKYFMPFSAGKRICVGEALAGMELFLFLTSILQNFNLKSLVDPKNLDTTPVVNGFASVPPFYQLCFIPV

[6] = test system: human leukemia K562 (K562/S) cell line; experiment: SRB cytotoxicity assay, K562/S; details: K562, read-out: Cytotoxicity IC50 against K562/S
Experimental: as §1

[7] = test system: doxorubicin-resistant K562 (K562/R) cell line; experiment: SRB cytotoxicity assay, doxorubicin-resistant K562; details: Homo sapiens, K-562R, read-out: Cytotoxicity IC50 against K562/R
Experimental: as §1

[8] = Homo sapiens, K562, read-out: Cytotoxicity IC50 against K562/S

IC50 [1] | IC50 [2] | Molecule | Inhibitory effect toward five human cytochrome P-450 enzymes other than CYP2C9 [4] | IC50 [5, 8] | also measured
4490 ± 310 nM | 3610 ± 170 nM | 30-hydroxyepigambogic acid [compound 2] | – | – | –
2890 ± 350 nM | 1270 ± 150 nM | 30-hydroxygambogic acid [compound 1] | – | – | –
– | – | CC(C)=CCC[C@]1(C)C=Cc2c(O)c3c(c(CC=C(C)C)c2O1)O[C@]12C(=C[C@@H]4C[C@H]1C(C)(C)O[C@@]2(C/C=C(/C)C(=O)O)C4=O)C3=O (single isomer, unassigned) [Epimer 1, gambogic acid] | little inhibitory effects | 890 nM | IC50 ([3]; Homo sapiens, K-562R): 1320 nM
– | – | CC(C)=CCCC1(C)C=Cc2c(O)c3c(c(CC=C(C)C)c2O1)OC12C(=CC4CC1C(C)(C)OC2(CC=C(C)C(=O)O)C4=O)C3=O (single isomer, unassigned; epimer 2) [Epimer 2, epigambogic acid] | little inhibitory effects | – | IC50 ([3]; doxorubicin-resistant K562/R, Example 1 MTT assay, Table 4 columns marked ^a): 1110 nM; CYP2C9 inhibitory effect, S-epimer relative to R-epimer (CYP2C9): 20 folds; IC50 ([5]; read-out: Cytotoxicity IC50 against K562/S, K562/S, Example 1 MTT assay, Table 4 columns marked ^a): 860 nM
– | – | COc1cccc2c1C(=O)c1c(O)c3c(c(O)c1C2=O)C[C@@](O)(C(=O)CO)C[C@@H]3O[C@H]1C[C@H](N)[C@H](O)[C@H](C)O1 [Doxorubicin, doxorubicin, reference compound] | – | 660 nM | IC50 ([3]; Homo sapiens, K-562R, doxorubicin-resistant K562/R, Example 1 MTT assay, Table 4 columns marked ^a): 10800 nM; IC50 [6]: 110 ± 10 nM; IC50 [7]: 1790 ± 170 nM
